The test system of this test is cerebral organoids. Nature of the test: Immunostaining of cell aggregates after DAPT treatment. In kind it is cell-based, human. Here is the method: Organoids were fixed with 4% paraformaldehyde for 30 minutes, subjected to dehydration reaction with 30% (w/v) sucrose in PBS, and embedded with O.C.T. compound (Sakura Finetek Japan Co., Ltd.). Frozen sections were prepared in a thickness of 16 μm by using a cryostat (CM1850, Leica Biosystems Nussloch GmbH). Permeabilization was performed with 0.3% or 2% (v/v) Triton-X100, and, as necessary, antigen retrieval reaction was performed. Blocking was performed with Block ACE (KAC Co., Ltd.), and double- or triple-label staining was then performed. Primary antibodies and secondary antibodies for use in immunostaining were diluted to recommended concentrations before use.
As illustrated by a scheme shown in FIG. 11(A), in step (ii), cerebral organoids were screened on day 33 after the initiation of induction of differentiation (Day 33), the culture medium was replaced with one obtained by adding 10 μM DAPT to the culture medium in step (2b), and suspension culture was performed at 37° C. under 5% CO2 for 3 days. As a result, cerebral cortical cell aggregates were obtained.
The cerebral cortical cell aggregates (Day 36) and high-purity cerebral cortical cell aggregates (Day 40) were further immunostained for the cortical layer V/VI progenitor cell (deep layer) marker Ctip2, the telencephalon marker Foxg1, the neural stem cell (radial glia) marker […], and the proliferative cell marker Ki67.
Organoids on Day 25, Day 32, Day 39, and Day 72 (the periods of induction of differentiation: about 4 weeks, 5 weeks, 6 weeks, and 10 weeks, respectively) were cultured in the presence or absence of DAPT for 3 days, and the organoids on Day 28 (4 wk), Day 42 (6 wk), and Day 75 (10 wk) were analyzed for different markers by immunostaining. […] Satb2 is a cortical layer II-IV progenitor cell (upper layer) marker.

Where [1] appears, read: organoids Day 33, 10 μM DAPT for 3 days, Day 36.
[2] abbreviates: organoids in week 4 to week 6, DAPT for 3 days.

For `C[C@H](NC(=O)Cc1cc(F)cc(F)c1)C(=O)N[C@H](C(=O)OC(C)(C)C)c1ccccc1` [DAPT, N-[N-(3,5-difluorophenacetyl)-L-alanyl]-S-phenylglycine t-butyl ester], under setting [1], the “cerebral cortex-like layered structure (immunostaining)” value was “no cerebral cortex-like layered structure was found” and the “expression of Ki67 (immunostaining)” value is listed as “almost no expression”. Further, under setting [2], the “number of Ctip2/Bf1-co-positive cells” value is on record as “increased number” and the “number of Ki67-positive cells” value is “decreased number”. For the same compound, the “proportion of Ctip2-positive cells and that of Satb2-positive cells” value (organoids in week 10, DAPT for 3 days) is “no significant change”.

These data come from patent publication US20240279602A1, “METHOD FOR PRODUCING CEREBRAL CORTICAL CELL PREPARATION DERIVED FROM HUMAN PLURIPOTENT STEM CELLS” (Kyoto University, priority 2021, published 2024).
